Experimental data reported in ChEMBL document CHEMBL5346901, “Discovery of potent Plasmodium falciparum protein kinase 6 (PfPK6) inhibitors with a type II inhibitor pharmacophore” (Eur J Med Chem, 2023).
≈ marks a conversion by molar mass, not a printed value. Calls of active or inactive are those of the source. The calls are words filed in the database; no cut-off is given here.

Biological target: T1, Cdk-related protein kinase 6 (Plasmodium falciparum) (UniProt O77239)
T1 sequence (whole entry): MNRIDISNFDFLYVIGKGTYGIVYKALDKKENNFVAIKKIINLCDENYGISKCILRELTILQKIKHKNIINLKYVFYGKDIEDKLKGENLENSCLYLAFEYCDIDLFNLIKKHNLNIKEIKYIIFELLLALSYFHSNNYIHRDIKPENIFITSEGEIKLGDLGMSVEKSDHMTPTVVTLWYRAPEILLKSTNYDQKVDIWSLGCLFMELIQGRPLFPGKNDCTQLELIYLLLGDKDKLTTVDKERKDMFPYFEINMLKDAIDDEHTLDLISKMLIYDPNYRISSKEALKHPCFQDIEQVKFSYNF
Test: Inhibition of plasmodium falciparum PK6 assessed as remaining activity at 1 uM incubated for 2 hrs by luciferin-based luminescence assay relative to control
Details: not given

Row | SMILES | Activity [%]
1 | O=C(Nc1ccc(F)cc1F)Nc1ccc(Oc2ncnc3ccsc23)cc1F | 61
2 | COc1ccc(NC(=O)Nc2ccc(F)cc2F)c(F)c1 | 100
3 | O=C(Nc1ccc(F)cc1F)Nc1ccc(Oc2ccnc3cc(Cl)ccc23)cc1F | 38
4 | O=C(Nc1ccc(F)cc1F)Nc1ccc(Oc2ccncn2)cc1F | 84
5 | O=C(Nc1ccc(F)cc1F)Nc1ccc(Oc2ccnc(Cl)n2)cc1F | 98
6 | COc1cc2ncnc(Oc3ccc(NC(=O)Nc4ccc(F)cc4F)c(F)c3)c2cc1OC | 6
7 | O=C(Nc1ccc(O)cc1F)Nc1ccc(F)cc1F | 100
8 | O=C(Nc1ccc(F)cc1F)Nc1ccc(Oc2ncnc3[nH]ccc23)cc1F | 54
9 | COCCOc1cc2nccc(Oc3ccc(NC(=O)Nc4ccc(F)cc4F)c(F)c3)c2cc1OCCOC | 2
10 | N#Cc1cnc2ccccc2c1Oc1ccc(NC(=O)Nc2ccc(F)cc2F)c(F)c1 | 86
11 | COc1ccc2c(Oc3ccc(NC(=O)Nc4ccc(F)cc4F)c(F)c3)ccnc2c1 | 11
12 | O=C(Nc1ccc(F)cc1F)Nc1ccc(Oc2ncnc3ccccc23)cc1F | 83
13 | O=C(Nc1ccc(F)cc1F)Nc1ccc(Oc2ccnc3sccc23)cc1F | 43
14 | O=C(Nc1ccc(F)cc1F)Nc1ccc(Oc2ccnc3ccccc23)cc1F | 40
15 | COc1cc2nccc(Oc3ccc(N)c(F)c3)c2cc1OC | 100
16 | O=C(Nc1ccc(F)cc1F)Nc1ccc(Oc2cc(NCc3ccccc3)ncn2)cc1F | 60
17 | O=C(Nc1ccc(F)cc1F)Nc1ccc(Oc2cnnc3ccccc23)cc1F | 100
18 | COc1cc2nccc(Oc3ccc(NC(=O)Nc4ccc(F)cc4)c(F)c3)c2cc1OC | 1

Row | SMILES | Activity [%]
19 | COc1cc2nccc(Oc3cccc(F)c3)c2cc1OC | 84
20 | O=C(Nc1ccc(F)cc1F)Nc1ccc(Oc2ncnc3sccc23)cc1F | 80
21 | O=C(Nc1ccc(F)cc1F)Nc1ccc(Oc2ccnc(Cl)c2)cc1F | 92
22 | O=C(Nc1ccc(F)cc1F)Nc1ccc(Oc2ccncc2)cc1F | 50
23 | O=C(Nc1ccc(F)cc1F)Nc1ccc(Oc2ccnc3cc4c(cc23)OCO4)cc1F | 28
24 | O=C(Nc1ccc(F)cc1F)Nc1ccc(Oc2ccnc3[nH]ccc23)cc1F | 14
25 | O=C(Nc1ccc(F)cc1F)Nc1ccc(Oc2cc(Cl)ncn2)cc1F | 96
26 | COc1cc2nccc(Oc3ccc(NC(=O)Nc4ccccc4)cc3)c2cc1OC | 4
27 | O=C(Nc1ccc(F)cc1F)Nc1ccc(Oc2ccnc3ccsc23)cc1F | 34
28 | COc1ccc2nccc(Oc3ccc(NC(=O)Nc4ccc(F)cc4F)c(F)c3)c2c1 | 24
29 | COc1cc2nccc(Oc3ccc(N)cc3)c2cc1OC | 95
30 | COc1cc2nccc(Oc3ccc(NC(=O)Nc4ccccc4F)c(F)c3)c2cc1OC | 1
31 | O=C(Nc1ccc(F)cc1F)Nc1ccc(Oc2ccnc3cc4c(cc23)OCCO4)cc1F | 30
32 | COc1cc2nccc(Oc3ccc(NC(C)=O)c(F)c3)c2cc1OC | 26
33 | COc1cc2nccc(Oc3ccc(NC(=O)Nc4ccccc4)c(F)c3)c2cc1OC | 1
34 | COc1cc2nccc(Oc3ccc(NC(N)=O)c(F)c3)c2cc1OC | 28
35 | COc1cc2nccc(Oc3ccc(NC(=O)Nc4ccc(F)cc4F)cc3)c2cc1OC | 6

System: Plasmodium falciparum
Test: Antimalarial activity against blood stage Plasmodium falciparum 3D7 assessed as reduction in parasite growth incubated for 72 hrs by SYBR Green dye based fluorescence assay
Format: functional, organism-based
Details: not given

Row | SMILES | Activity
36 | COc1cc2nccc(Oc3ccc(NC(=O)Nc4cc(C(F)(F)F)ccc4F)c(F)c3)c2cc1OC | inactive
37 | COc1cccc(NC(=O)Nc2ccc(Oc3ccnc4cc(OC)c(OC)cc34)cc2F)c1 | inactive
38 | COc1cc2nccc(Oc3ccc(NC(=O)Nc4ccc(C(=O)N5CCN(C)CC5)cc4)c(F)c3)c2cc1OC | inactive
39 | COc1cc2nccc(Oc3ccc(NC(=O)Nc4cccc(C(=O)N5CCN(C)CC5)c4)c(F)c3)c2cc1OC | inactive
40 | COc1cc2nccc(Oc3ccc(NC(=O)Nc4cc(C(=O)N5CCN(C)CC5)cc(C(F)(F)F)c4)c(F)c3)c2cc1OC | inactive
41 | COc1cc2nccc(Oc3ccc(NC(=O)Nc4cccc(OC(F)F)c4)c(F)c3)c2cc1OC | inactive
42 | COc1cc2nccc(Oc3ccc(NC(=O)Nc4ccc(F)cc4F)c(F)c3)c2cc1OC | inactive
43 | COc1cc2nccc(Oc3ccc(NC(=O)Nc4cccc(CN5CCN(C)CC5)c4)c(F)c3)c2cc1OC | inactive
44 | COc1cc2nccc(Oc3ccc(NC(=O)Nc4cccc(C(C)C)c4)c(F)c3)c2cc1OC | inactive
45 | COc1cc2nccc(Oc3ccc(NC(=O)Nc4cccc(Br)c4)c(F)c3)c2cc1OC | inactive
46 | COc1cc2nccc(Oc3ccc(NC(=O)Nc4ccc(CN5CCOCC5)cc4)c(F)c3)c2cc1OC | inactive
47 | COc1cc2nccc(Oc3ccc(NC(=O)Nc4ccc(C(=O)N5CCN(C)CC5)c(C(F)(F)F)c4)c(F)c3)c2cc1OC | inactive
48 | COc1cc2nccc(Oc3ccc(NC(=O)Nc4cccc(C#N)c4)c(F)c3)c2cc1OC | inactive
49 | COc1cc2nccc(Oc3ccc(NC(=O)Nc4cccc(OC(C)C)c4)c(F)c3)c2cc1OC | inactive

Same assay, conditions: 3D7, 72 h

Row | SMILES | EC50 [nM]
50 | COc1cc2nccc(Oc3ccc(NC(=O)Nc4cccc(Cl)c4)c(F)c3)c2cc1OC | 2190
51 | COc1cc2nccc(Oc3ccc(NC(=O)Nc4ccc(CN5CCCCC5)c(C(F)(F)F)c4)c(F)c3)c2cc1OC | 490
52 | COc1cc2nccc(Oc3ccc(NC(=O)Nc4cccc(OC(F)(F)F)c4)c(F)c3)c2cc1OC | 800
53 | COc1cc2nccc(Oc3ccc(NC(=O)Nc4ccc(CN5CCCC5)c(C(F)(F)F)c4)c(F)c3)c2cc1OC | 330
54 | COc1cc2nccc(Oc3ccc(NC(=O)Nc4ccc(C=C5CCNCC5)c(C(F)(F)F)c4)c(F)c3)c2cc1OC | 83
55 | CCN(CC)Cc1ccc(NC(=O)Nc2ccc(Oc3ccnc4cc(OC)c(OC)cc34)cc2F)cc1C(F)(F)F | 300
56 | COc1cc2nccc(Oc3ccc(NC(=O)Nc4ccc(CN5CCCCC5)c(OC(F)(F)F)c4)c(F)c3)c2cc1OC | 310
57 | COc1cc2nccc(Oc3ccc(NC(=O)Nc4ccc(N(C)C5CCN(C)CC5)cc4)c(F)c3)c2cc1OC | 330
58 | COc1cc2nccc(Oc3ccc(NC(=O)Nc4ccc(N(C)C5CCN(C)CC5)c(C(F)(F)F)c4)c(F)c3)c2cc1OC | 150
59 | CCN(CC)Cc1ccc(NC(=O)Nc2ccc(Oc3ccnc4cc(OC)c(OC)cc34)cc2F)cc1 | 320
60 | COc1cc2nccc(Oc3ccc(NC(=O)Nc4ccc(CN5CCN(C)CC5)c(C(F)(F)F)c4)c(F)c3)c2cc1OC | 110
61 | COc1cc2nccc(Oc3ccc(NC(=O)Nc4ccc(NC5CCN(C)CC5)cc4)c(F)c3)c2cc1OC | 660
62 | CCc1nc(N)nc(N)c1-c1ccc(Cl)cc1 [PYRIMETHAMINE] | 27
63 | COc1cc2nccc(Oc3cc(C(=O)Nc4ccc(CN5CCN(C)CC5)c(C(F)(F)F)c4)ccc3C)c2cc1OC | 410
64 | CCN(CC)Cc1ccc(NC(=O)Nc2ccc(Oc3ccnc4cc(OC)c(OC)cc34)cc2F)cc1OC(F)(F)F | 270
65 | COc1cc2nccc(Oc3ccc(NC(=O)Nc4ccc(OC5CCN(C)CC5)cc4)c(F)c3)c2cc1OC | 330
66 | COc1cc2nccc(Oc3ccc(NC(=O)Nc4ccc(OC5CCN(C)CC5)c(OC(F)(F)F)c4)c(F)c3)c2cc1OC | 75

Row | SMILES | EC50 [nM]
67 | COc1cc2nccc(Oc3ccc(NC(=O)Nc4ccc(N5CCN(C)CC5)cc4)c(F)c3)c2cc1OC | 630
68 | COc1cc2nccc(Oc3ccc(NC(=O)Nc4cccc(C(C)(C)C)c4)c(F)c3)c2cc1OC | 2520
69 | CCN(CC)CCCC(C)Nc1c2ccc(Cl)cc2nc2ccc(OC)cc12 (configuration not stated) [QUINACRINE] | 33
70 | COc1cc2nccc(Oc3ccc(NC(=O)Nc4ccc(C=C5CCNCC5)c(OC(F)(F)F)c4)c(F)c3)c2cc1OC | 84
71 | Nc1ncnc2occ(-c3ccc(NC(=O)Nc4cc(C(F)(F)F)ccc4F)cc3)c12 [GW770249X] | 500
72 | COc1cc2nccc(Oc3ccc(NC(=O)Nc4ccc(CN5CCCCC5)cc4)c(F)c3)c2cc1OC | 250
73 | COc1cc2nccc(Oc3ccc(NC(=O)Nc4ccc(CN5CCCC5)cc4)c(F)c3)c2cc1OC | 270
74 | COc1cc2nccc(Oc3ccc(NC(=O)Nc4cccc(C)c4)c(F)c3)c2cc1OC | 3010
75 | COc1cc2nccc(Oc3ccc(NC(=O)Nc4ccc(CN5CCN(C)CC5)cc4)c(F)c3)c2cc1OC | 580
76 | C[C@H]1[C@@H](O)O[C@@H]2O[C@@]3(C)CC[C@H]4[C@H](C)CC[C@@H]1[C@@]24OO3 [ARTENIMOL] | 0.14
77 | COc1cc2nccc(Oc3ccc(NC(=O)Nc4cccc(C(F)(F)F)c4)c(F)c3)c2cc1OC | 540
78 | COc1cc2nccc(Oc3ccc(NC(=O)Nc4ccc(CN5CCCC5)c(OC(F)(F)F)c4)c(F)c3)c2cc1OC | 230
79 | COc1cc2nccc(Oc3ccc(NC(=O)Nc4cc(CN5CCN(C)CC5)cc(C(F)(F)F)c4)c(F)c3)c2cc1OC | 410
80 | COc1cc2nccc(Oc3ccc(NC(=O)Nc4ccc(CC5CCNCC5)c(OC(F)(F)F)c4)c(F)c3)c2cc1OC | 82
81 | CN1CCN(C(=O)c2cccc(NC(=O)Nc3ccc(N(C)c4ccnc(Nc5ccc(CS(C)(=O)=O)cc5)n4)cc3)c2)CC1 | 390
82 | COc1cc2nccc(Oc3ccc(NC(=O)Nc4ccc(N(C)C5CCN(C)CC5)c(OC(F)(F)F)c4)c(F)c3)c2cc1OC | 250

System: HepG2
Test: Cytotoxicity against human HepG2 cells assessed as reduction in cell viability by CellTiter-Glo assay
Format: toxicity, cell-based
Details: not given

Row | SMILES | CC50 [nM]
83 | COc1cc2nccc(Oc3ccc(NC(=O)Nc4ccc(CN5CCN(C)CC5)c(C(F)(F)F)c4)c(F)c3)c2cc1OC | 1000

System: not listed separately
Test: Kinetic solubility of the compound at pH 7.4
Format: physicochemical
Details: buffer, read-out: Kinetic_solubility

Row | SMILES | solubility kinetic [µM]
84 | COc1cc2nccc(Oc3ccc(NC(=O)Nc4ccc(CN5CCN(C)CC5)c(C(F)(F)F)c4)c(F)c3)c2cc1OC | 2.1 (≈ 1.29 µg/mL)
85 | COc1cc2nccc(Oc3ccc(NC(=O)Nc4ccc(F)cc4F)c(F)c3)c2cc1OC | 0.7 (≈ 0.329 µg/mL)

System: not listed separately
Test: Apparent permeability of compound by PAMPA assay
Format: ADME
Details: not given

Row | SMILES | Papp
86 | COc1cc2nccc(Oc3ccc(NC(=O)Nc4ccc(CN5CCN(C)CC5)c(C(F)(F)F)c4)c(F)c3)c2cc1OC | 2.57 10^-6 cm/s

Biological target: Calcium-dependent protein kinase 1 (Plasmodium falciparum) (UniProt P62344)
Sequence (P62344 2-524 limits assumed): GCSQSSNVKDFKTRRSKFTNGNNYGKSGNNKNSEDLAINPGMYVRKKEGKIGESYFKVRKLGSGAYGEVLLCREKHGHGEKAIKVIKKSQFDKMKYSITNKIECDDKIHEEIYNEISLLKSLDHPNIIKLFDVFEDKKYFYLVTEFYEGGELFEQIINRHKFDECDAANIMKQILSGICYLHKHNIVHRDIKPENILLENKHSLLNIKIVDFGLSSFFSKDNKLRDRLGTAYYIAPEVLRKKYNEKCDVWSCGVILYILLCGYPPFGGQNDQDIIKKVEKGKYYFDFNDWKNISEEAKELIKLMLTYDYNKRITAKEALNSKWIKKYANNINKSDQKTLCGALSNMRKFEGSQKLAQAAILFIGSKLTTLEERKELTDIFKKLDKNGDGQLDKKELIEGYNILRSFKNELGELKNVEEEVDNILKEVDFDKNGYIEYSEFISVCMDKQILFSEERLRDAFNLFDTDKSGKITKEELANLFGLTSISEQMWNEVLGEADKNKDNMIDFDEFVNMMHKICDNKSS
Test: Inhibition of plasmodium falciparum CDPK1 assessed as remaining activity at 1 uM by Kinomescan method relative to control
Details: time 2.0 hrs

Row | SMILES | Activity [%]
87 | COc1cc2nccc(Oc3ccc(NC(=O)Nc4ccc(CN5CCN(C)CC5)c(C(F)(F)F)c4)c(F)c3)c2cc1OC | 1.6
